# Measurements taken from patent US9193762B2, “Selective inhibitors of prolylcarboxypeptidase” (UNIVERSITY OF MISSISSIPPI, priority 2010, dated 2015).
# “Also recorded” adds a separate entry of the source. Where a SMILES comes first, the peptide text is derived from it. The star is where a group is joined. Cbz = O=C(OCc1ccccc1)*
# Key:
# [1] = target: factor XIIa (FXIIa) (Homo sapiens (Human), UniProt P00748); experiment: specificity: serine protease FXIIa; type: biochemical
# [2] = target: factor XIa (FXIa) (Homo sapiens (Human), UniProt P03951); experiment: specificity: serine protease FXIa; type: biochemical
# [3] = test system: carotid artery thrombosis in wild type C57BL/6 mice; experiment: FeCl3 carotid artery thrombosis model, wild type mice; details: 10 mg/kg IV, 3.5% FeCl3, vs PBS
# Method: (§1) C57Bl/6 WT mice and C57Bl/6 mice deficient in factor fXII (FXII^−/−), were used in these studies. The procedures were approved by the Institutional Animal Care and Use Committee of Vanderbilt University. After anesthesia with pentobarbital (50 mg/kg IP), the right common carotid artery was exposed and fitted with a Doppler flow probe (Model 0.5 VB, Transonic System, Ithaca, N.Y.). […] Flow was monitored for 30 min. Mice were sacrificed by pentobarbital overdose after conclusion of the experiment, while under anesthesia.
# [4] = toxicity: 14 metabolic markers in mice; type: in vivo
# Source text: The blood glucose level was decreased in drug-treated mice (n=3) by 15%.
# [5] = test system: HPAEC permeability; experiment: in vitro vascular permeability assay, HPAEC monolayer with HK/PK complex; type: cell-based, human
# Method: The effect of the inhibitors of PRCP on vascular permeability was assessed using an in vitro vascular permeability assay kit (Chemicon/Millipore, Mass.) according to the manufacturer's protocol. Briefly, collagen coating solution in 0.2×PBS, pH 7.1 was added to the inserts. After incubating for 1 h at room temperature, the inserts were hydrated with cell growth medium for 15 min and seeded with 200 μL of cell suspension (1.0×10^6 HPAEC/mL). The plate was incubated at 37° C. for 24 h until a cell monolayer was formed. The inserts were then treated with cell basal medium (negative control); 1 μg/mL LPS (positive control); 0.1 μM HK/PK complex in the absence or presence of HOE-140 (1 μM) and lisinopril (1 μM, […]) and incubated at 37° C. for 18 h. […] The fluorescence was read at an excitation wavelength of 485 nm and an emission wavelength of 528 nm using BioTek Synergy 2 Multi-Mode Microplate Reader.
# [6] = target: CPM (Homo sapiens (Human), UniProt P14384); experiment: carboxypeptidase CPM, metabolism of hippuryl-lysine; type: biochemical
# [7] = target: α-kallikrein (Homo sapiens (Human), UniProt P03952); experiment: specificity: serine protease α-kallikrein; type: biochemical
# [8] = test system: carotid artery thrombosis in FXII−/− mice; experiment: FeCl3 carotid artery thrombosis model, FXII-deficient mice
# Method: as §1
# [9] = test system: food intake of mice; experiment: food intake in fasted mice after i.p. injection; type: in vivo
# Method: Mice were single housed one week before the experiment. Male mice (n=6 per group; 4 months old) were then food deprived for 24 hours. […] Food intake was measured at 1 hour, 2 hours, 4 hours 8 hours and 24 hours.
# [10] = target: carboxypeptidase B [CPB, EC 3.4.17.2] (Sus scrofa, UniProt P09955); experiment: carboxypeptidase B inhibition; type: biochemical
# [11] = target: carboxypeptidase A [CPA, EC 3.4.17.1] (Bos taurus, UniProt P00730); experiment: carboxypeptidase A inhibition; type: biochemical
# Source text: While BK exerts its vasodilatory effect through the bradykinin B2 receptors (BKB2R), des-Arg9-BK (a substrate of PRCP) mediates its effect via the selective bradykinin B1 receptors (BKB1R). […] Carboxypeptidase A (CPA) is a highly conserved protease, which is present in pancreas and the secretory granules of mast cells. Although its substrate selectivity is different than that of PRCP, both CPA and PRCP can cleave the C-terminal aromatic or aliphatic amino acids of proteins or peptides. […] The reaction mixture was incubated at 37° C. for 1 h. The reaction was stopped by the addition of 0.5 M HCl.
# [12] = target: CPN (hCPN, partially purified from plasma) (Homo sapiens (Human), UniProt P15169); experiment: carboxypeptidase CPN, metabolism of hippuryl-lysine; type: biochemical
# Source text: While BK exerts its vasodilatory effect through the bradykinin B2 receptors (BKB2R), des-Arg9-BK (a substrate of PRCP) mediates its effect via the selective bradykinin B1 receptors (BKB1R). […] Carboxypeptidase A (CPA) is a highly conserved protease, which is present in pancreas and the secretory granules of mast cells. Although its substrate selectivity is different than that of PRCP, both CPA and PRCP can cleave the C-terminal aromatic or aliphatic amino acids of proteins or peptides. […] All values were calculated as percentage of positive control after subtraction of background. […] Commercially available pooled normal human serum was used. The tubes were tightly covered, vortexed for 15 seconds and incubated for 60 min at 37° C. in a shaker water bath. The enzymatic reaction was stopped by addition of 250 μL of 1 M HCl solution and vortexed for 15 seconds. The blanks were stopped immediately after the addition of serum by 250 μL of 1M HCl before incubation. All samples were incubated on ice for 5 min. 1500 μL ethyl acetate was added, vortexed for 30 s and centrifuged for 10 min at 4000 g. 1 mL of the upper layer (ethyl acetate) was transferred into a 5 mL test tube and placed in a boiling water bath for 45-60 min to evaporate the ethyl acetate thoroughly, 3 mL of 1M NaCl solution was added to each tube and vortexed for 30 s. All samples were placed in water bath at 70° C. for 5 min to redissolve all the residual hippuric acid, then vortexed for 30 s. After 15 min of incubation at room temperature, the absorbance of hippuric acid was read at λ=228 nm.
# The reaction mixture was incubated at 37° C. for 1 h. The reaction was stopped by the addition of 0.5 M HCl.
# [13] = test system: PRCP-dependent PK activation on human pulmonary artery endothelial cells (HPAEC)
# Method: Applicants utilized two assays to evaluate the putative PRCP inhibitors; 1.) a chromogenic enzyme assay, that involved the continual monitoring [60 min] for the production of p-nitroaniline derived from rPRCP-catalyzed conversion of Ala-Pro-p-nitroaniline (APpNA) in the presence of inhibitor and; 2.) a cell-based assay measuring the PRCP-dependent PK activation on human pulmonary artery endothelial cells (HPAEC). […] Human pulmonary artery endothelial cells (HPAEC) were purchased from Invitrogen (Carlsbad, Calif.) and were cultured as previously described.^20 The cells were grown in Dulbecco's Modified Eagle's Medium (DMEM) overnight in 96 well plates (Costar). […] Gelatin blocking buffer (1% Gelatin) was prepared by adding appropriate amount of 5% gelatin stock to HEPES-carbonated buffer as described above. In the first step, gelatin blocking buffer was used to reduce the non specific binding. As part of this step, the cells were incubated with 1% gelatin buffer for 1 hour.
# [14] = target: recombinant prolylcarboxypeptidase (rPRCP) (Homo sapiens (Human), UniProt P42785); experiment: chromogenic enzyme assay of rPRCP with Ala-Pro-p-nitroaniline (APpNA); type: biochemical
# Method: Applicants utilized two assays to evaluate the putative PRCP inhibitors; 1.) a chromogenic enzyme assay, that involved the continual monitoring [60 min] for the production of p-nitroaniline derived from rPRCP-catalyzed conversion of Ala-Pro-p-nitroaniline (APpNA) in the presence of inhibitor and; 2.) a cell-based assay measuring the PRCP-dependent PK activation on human pulmonary artery endothelial cells (HPAEC). […] The effects of the inhibitors of PRCP were determined using a previously published method^31. Briefly, rPRCP was incubated in the presence or absence of various PRCP inhibitors in HEPES-carbonated buffer containing 1 mM Ala-Pro-paranitroaniline (APpNA, a PRCP chromogenic substrate). The final volume was 100 μL and the time of incubation was 60 min. […] Generation of free p-nitroaniline from APpNA was determined by monitoring changes in absorbance at 405 nm. Assays were done a minimum of 3 times.
# [15] = test system: trypsin; experiment: specificity: serine protease trypsin; type: biochemical
# [16] = failed to inhibit at these concentrations
# CPM, sequence (P14384 18-443, species assumed): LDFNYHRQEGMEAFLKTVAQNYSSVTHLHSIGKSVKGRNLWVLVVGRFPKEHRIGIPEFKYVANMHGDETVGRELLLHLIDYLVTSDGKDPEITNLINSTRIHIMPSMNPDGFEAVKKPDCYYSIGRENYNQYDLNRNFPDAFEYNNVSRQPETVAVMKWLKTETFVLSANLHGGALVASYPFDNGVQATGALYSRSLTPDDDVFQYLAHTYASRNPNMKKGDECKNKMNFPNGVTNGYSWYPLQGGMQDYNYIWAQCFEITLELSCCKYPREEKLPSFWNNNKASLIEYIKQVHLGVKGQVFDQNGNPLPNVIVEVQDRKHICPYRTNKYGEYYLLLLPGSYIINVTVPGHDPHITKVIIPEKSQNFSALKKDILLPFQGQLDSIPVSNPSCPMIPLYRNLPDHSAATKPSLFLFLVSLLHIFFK
# factor XIIa (FXIIa), sequence (P00748 373-615): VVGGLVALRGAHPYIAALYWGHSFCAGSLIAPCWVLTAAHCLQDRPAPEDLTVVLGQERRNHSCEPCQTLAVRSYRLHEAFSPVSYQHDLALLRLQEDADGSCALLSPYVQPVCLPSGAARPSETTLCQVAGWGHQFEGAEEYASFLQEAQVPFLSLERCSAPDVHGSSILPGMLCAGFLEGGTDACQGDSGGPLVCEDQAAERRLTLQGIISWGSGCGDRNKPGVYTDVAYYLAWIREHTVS
# CPN (hCPN, partially purified from plasma), sequence (P15169 21-458): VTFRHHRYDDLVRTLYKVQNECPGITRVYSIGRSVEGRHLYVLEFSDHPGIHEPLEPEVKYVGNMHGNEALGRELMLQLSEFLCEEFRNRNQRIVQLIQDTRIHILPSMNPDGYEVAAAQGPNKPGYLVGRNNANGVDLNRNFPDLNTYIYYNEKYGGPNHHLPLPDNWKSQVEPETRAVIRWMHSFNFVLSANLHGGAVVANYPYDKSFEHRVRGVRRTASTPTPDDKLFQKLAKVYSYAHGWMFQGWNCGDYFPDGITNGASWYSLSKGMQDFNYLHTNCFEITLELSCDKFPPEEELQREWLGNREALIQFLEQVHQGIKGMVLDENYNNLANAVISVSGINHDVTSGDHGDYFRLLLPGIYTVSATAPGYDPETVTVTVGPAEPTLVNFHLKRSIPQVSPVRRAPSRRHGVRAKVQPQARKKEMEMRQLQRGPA
# CPN (hCPN, partially purified from plasma), sequence (P22792 22-545 partner): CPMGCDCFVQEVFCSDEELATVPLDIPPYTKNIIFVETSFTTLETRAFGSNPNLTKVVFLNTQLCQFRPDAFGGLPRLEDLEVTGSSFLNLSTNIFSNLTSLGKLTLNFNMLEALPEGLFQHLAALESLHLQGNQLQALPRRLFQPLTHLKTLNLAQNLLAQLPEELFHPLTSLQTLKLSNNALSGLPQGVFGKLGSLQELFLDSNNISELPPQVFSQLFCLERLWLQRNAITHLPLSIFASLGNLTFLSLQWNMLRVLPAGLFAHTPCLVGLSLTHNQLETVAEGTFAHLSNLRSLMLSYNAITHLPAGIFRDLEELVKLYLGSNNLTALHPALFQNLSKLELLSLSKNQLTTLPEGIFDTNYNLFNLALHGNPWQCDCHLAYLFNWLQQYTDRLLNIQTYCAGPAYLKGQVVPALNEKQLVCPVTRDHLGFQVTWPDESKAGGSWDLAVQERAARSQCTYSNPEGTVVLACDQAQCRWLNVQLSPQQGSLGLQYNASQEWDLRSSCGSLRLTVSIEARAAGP
# recombinant prolylcarboxypeptidase (rPRCP), sequence (P42785 46-496): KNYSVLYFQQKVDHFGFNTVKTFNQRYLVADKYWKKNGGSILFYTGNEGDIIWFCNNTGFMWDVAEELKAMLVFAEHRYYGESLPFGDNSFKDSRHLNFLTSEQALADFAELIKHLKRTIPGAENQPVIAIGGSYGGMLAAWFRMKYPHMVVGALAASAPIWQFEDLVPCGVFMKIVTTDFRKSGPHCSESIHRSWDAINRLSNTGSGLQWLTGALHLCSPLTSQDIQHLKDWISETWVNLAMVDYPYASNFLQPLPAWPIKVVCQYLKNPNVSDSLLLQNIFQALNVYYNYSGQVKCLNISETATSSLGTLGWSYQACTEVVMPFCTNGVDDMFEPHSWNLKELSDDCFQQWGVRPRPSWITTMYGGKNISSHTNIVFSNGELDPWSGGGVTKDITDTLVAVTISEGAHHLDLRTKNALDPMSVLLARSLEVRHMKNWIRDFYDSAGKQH
# α-kallikrein, sequence (P03952 391-638): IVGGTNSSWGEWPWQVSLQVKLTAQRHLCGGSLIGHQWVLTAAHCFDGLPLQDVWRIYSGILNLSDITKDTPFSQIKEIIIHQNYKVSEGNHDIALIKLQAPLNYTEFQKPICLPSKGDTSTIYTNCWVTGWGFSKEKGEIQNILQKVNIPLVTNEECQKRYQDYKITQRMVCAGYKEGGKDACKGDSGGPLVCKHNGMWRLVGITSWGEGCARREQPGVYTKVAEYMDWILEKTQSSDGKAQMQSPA
# α-kallikrein, sequence (P03952 20-390 partner): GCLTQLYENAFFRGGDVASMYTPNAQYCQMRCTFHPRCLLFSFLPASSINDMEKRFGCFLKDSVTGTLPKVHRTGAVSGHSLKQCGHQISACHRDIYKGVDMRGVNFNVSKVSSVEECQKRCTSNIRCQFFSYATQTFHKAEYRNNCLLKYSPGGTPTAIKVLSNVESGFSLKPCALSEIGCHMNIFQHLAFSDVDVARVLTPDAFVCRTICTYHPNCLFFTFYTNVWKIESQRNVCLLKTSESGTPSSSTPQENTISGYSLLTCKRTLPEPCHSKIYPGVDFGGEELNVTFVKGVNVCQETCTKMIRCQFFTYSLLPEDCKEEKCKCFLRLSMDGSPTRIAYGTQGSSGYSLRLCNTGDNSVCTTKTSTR
# carboxypeptidase B [CPB, EC 3.4.17.2], sequence (P09955 111-416 limits assumed): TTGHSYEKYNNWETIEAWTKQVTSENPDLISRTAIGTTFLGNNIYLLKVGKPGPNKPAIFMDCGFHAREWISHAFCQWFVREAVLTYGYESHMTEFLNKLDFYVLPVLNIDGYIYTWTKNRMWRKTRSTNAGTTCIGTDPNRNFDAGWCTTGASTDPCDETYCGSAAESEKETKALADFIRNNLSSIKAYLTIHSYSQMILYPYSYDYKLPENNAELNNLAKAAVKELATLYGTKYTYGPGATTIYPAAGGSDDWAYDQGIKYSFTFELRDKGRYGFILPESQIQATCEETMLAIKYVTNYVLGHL
# factor XIa (FXIa), sequence (P03951 388-625): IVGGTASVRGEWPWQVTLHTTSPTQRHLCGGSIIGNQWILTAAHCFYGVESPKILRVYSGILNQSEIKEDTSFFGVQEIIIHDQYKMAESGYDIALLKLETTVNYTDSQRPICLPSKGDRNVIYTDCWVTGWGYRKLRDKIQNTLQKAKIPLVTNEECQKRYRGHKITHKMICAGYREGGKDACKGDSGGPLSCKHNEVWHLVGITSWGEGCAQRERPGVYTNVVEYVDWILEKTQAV
# factor XIa (FXIa), sequence (P03951 19-387 partner): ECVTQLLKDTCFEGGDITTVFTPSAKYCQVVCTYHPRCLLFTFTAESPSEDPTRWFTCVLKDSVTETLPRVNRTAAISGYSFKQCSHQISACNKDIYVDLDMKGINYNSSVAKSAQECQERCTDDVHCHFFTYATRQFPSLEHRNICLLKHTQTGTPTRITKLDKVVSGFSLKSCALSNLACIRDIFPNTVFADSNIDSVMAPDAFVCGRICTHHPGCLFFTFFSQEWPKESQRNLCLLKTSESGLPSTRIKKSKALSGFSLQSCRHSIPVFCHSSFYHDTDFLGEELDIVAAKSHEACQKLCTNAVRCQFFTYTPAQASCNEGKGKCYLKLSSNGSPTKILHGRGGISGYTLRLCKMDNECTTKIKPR
# carboxypeptidase A [CPA, EC 3.4.17.1], sequence (P00730 111-419 limits assumed): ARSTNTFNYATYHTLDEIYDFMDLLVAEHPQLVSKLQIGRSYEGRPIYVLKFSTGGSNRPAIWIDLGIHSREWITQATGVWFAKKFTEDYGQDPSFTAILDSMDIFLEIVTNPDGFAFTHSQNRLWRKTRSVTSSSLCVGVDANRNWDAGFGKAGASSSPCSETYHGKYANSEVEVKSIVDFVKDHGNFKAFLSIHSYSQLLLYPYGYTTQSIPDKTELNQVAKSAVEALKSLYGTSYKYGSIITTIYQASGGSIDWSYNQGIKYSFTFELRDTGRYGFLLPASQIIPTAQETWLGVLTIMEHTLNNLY
molecule,measurement,setting,value
corn trypsin inhibitor,IC50,[1],0.2 µM
same,Ki,[1],0.12 µM
"CCCCCCCCCCCCNC(=O)[C@@H]1CCCN1C(=O)[C@@H]1CCCN1.Cl [RS-33-21, (S)—N-dodecyl-1-((S)-pyrrolidine-2-carbonyl)pyrrolidine-2-carboxamide hydrochloride]",concentration at which FXIa was not inhibited,[2]; [16],> 1.0 mM
same,vessel occlusion,[3],did not prevent vessel occlusion
same,time to arterial occlusion,[3]; hydrochloride,nor prolong the time to arterial occlusion; also recorded: did not observe shortening of carotid artery occlusion times
same,decrease in blood glucose level,"[4]; drug-treated mice, n=3",15%
same,glucose levels compared with control mice (in words),"[4]; mice, Table 16",relatively low but not statistically significant
same,increase in blood amylase compared to sham animals,"[4]; mice, n=3",20%
same,"change in electrolyte levels, body water, markers of kidneys and liver","[4]; mice, within 8 h",failed to cause any significant change
same,reduction of cell permeability,"[5]; 100 μM, in the presence of HK/PK (0.1 μM each)",90%
same,BK-induced permeability blocked,[5]; concentration not given,100%
same,inhibition of CPM (in words),[6]; metabolism of hippuryl-lysine,did not inhibit
same,concentration at which FXIIa was not inhibited,[1]; [16],> 1.0 mM
same,concentration at which kallikrein was not inhibited,[7]; [16],> 1.0 mM
same,antithrombotic effect (in words),[8]; FXII deficient mice,evidence for an antithrombotic effect
same,mice that did not develop occlusion,"[8]; FXII−/− mice, 10 mg/kg IV, 12.5% FeCl3",4 of 6
same,time to start of attenuation of food intake,[9]; i.p.,≤ 1 h
same,food intake at 1 mg/kg,[9]; i.p. 1 mg/kg,"lower food intake, although the reduction was not significant at 2, 4, 8, or 24 h"
same,food intake at 10 mg/kg,"[9]; i.p. 10 mg/kg, all time intervals",Significant declines in food intake
same,"food intake, dose and time dependence","[9]; i.p., 1, 10 or 100 mg/kg, hydrochloride",induced appetite loss that was dose- and time-dependent; also recorded: inhibited food intake; also recorded: reduced food-intake in mice in a dose- and time-dependent fashion; also recorded: reduced food intake in mice in a dose-dependent and time-dependent manner
same,food intake at 100 mg/kg,"[9]; single i.p. injection 100 mg/kg, 1-24 h, hydrochloride",Significant declines in food intake; also recorded: reduced food intake
same,inhibition of CPB (in words),[10],not inhibited
same,inhibition of CPA (in words),[11],not inhibited
same,inhibition of CPN (in words),[12]; metabolism of hippuryl-lysine,did not inhibit
"CCOCCOCCOCCCNC(=O)[C@@H]1CCCN1C(=O)[C@@H]1CCCN1C(=O)OCc1ccccc1 [RS-33-22, (S)-benzyl-2-((S)-2-((3-(2-(2-ethoxyethoxy)ethoxy)propyl)carbamoyl)pyrrolidine-1-carbonyl) pyrrolidine-1-carboxylate]",blocking of PK activation on HPAEC (in words),[13],ineffective
same,rPRCP inhibition (in words),[14],ineffective
"c1cnc2c(c1)ccc1cccnc12 [1,10-phenanthroline]",IC50,[6],640 µM
same,Ki,[6],394 µM
same,"Ki, CPB",[10],738.5 ηM
same,"Ki, CPA",[11],486 ηM
same,IC50,[12],1000 µM
same,Ki,[12],615 µM
"O=C[C@@H]1CCCN1C(=O)[C@@H]1CCCN1C(=O)OCc1ccccc1 [Z-Pro-Pro-OH, 1-[1-(benzyloxycarbonyl)-L-prolyl]prolinal, reference compound] (Cbz-Pro-Pro-aldehyde)",blocking of PK activation on HPAEC (in words),[13],a little effect
same,rPRCP inhibition (in words),[14],a little effect
"soybean trypsin inhibitor: soybean trypsin inhibitor (SBTI), comparison inhibitor of kallikrein, FXIa and trypsin (protein, UniProt P01070 25-205, looked up) Trypsin inhibitor A: DFVLDNEGNPLENGGTYYILSDITAFGGIRAAPTGNERCPLTVVQSRNELDKGIGTIISSPYRIRFIAEGHPLSLKFDSFAVIMLCVGIPTEWSVVEDLPEGPAVKIGENKDAMDGWFRLERVSDDEFNNYKLVFCPQQAEDDKCGDIGISIDHDDGTRRLVVSKNKPLVVQFQKLDKESL",IC50,[2],1 µM
same,IC50,[7],10 µM
same,IC50,[15],0.2 µM
